Experimental data reported in patent US20240148821A1, “PHARMACEUTICAL USE OF CYCLIC PEPTIDE COMPOUND” (CHUGAI SEIYAKU KABUSHIKI KAISHA, priority 2021, published 2024).
Numbered stars: 1 amine (or outer) side, 2 acyl side, 3 side chain; on linkers, the order of the positions; unused ones are H or OH. Bridge positions count the residues as written; N and C are the ends. Square brackets hold non-standard residues; d marks the D form. Peptide text beside a SMILES is read from it. * marks the point of attachment. hPhe(3,5-F2-4-CF3) = N[C@@H](CCc1cc(F)c(C(F)(F)F)c(F)c1)C(=O)O; hPhe(3-Cl-4-CF3) = N[C@@H](CCc1ccc(C(F)(F)F)c(Cl)c1)C(=O)O; hPhe(3-F,4-CF3) = N[C@@H](CCc1ccc(C(F)(F)F)c(F)c1)C(=O)O; NMePhe(4-CF3) = CN[C@@H](Cc1ccc(C(F)(F)F)cc1)C(=O)O; 3Oxa8azabicyclo(3.2.1)octane = C1CC2COCC1N2*; NEtPhe(4-Me) = CCN[C@@H](Cc1ccc(C)cc1)C(=O)O; NMePhe(4-Cl) = CN[C@@H](Cc1ccc(Cl)cc1)C(=O)O; NMePhe(4-Me) = CN[C@@H](Cc1ccc(C)cc1)C(=O)O; X77 = O=C(CN(CCN1CCC(F)(F)CC1)[*:1])[*:2]; Leu(4,5-dehydro) = C=C(C)C[C@H](N)C(=O)O; NMeGly(cPent) = CN[C@H](C(=O)O)C1CCCC1; Phe(2-Cl) = N[C@@H](Cc1ccccc1Cl)C(=O)O; Phe(3-I) = N[C@@H](Cc1cccc(I)c1)C(=O)O; NMeCha = CN[C@@H](CC1CCCCC1)C(=O)O; NMeGly(cPr) = CN[C@H](C(=O)O)C1CC1; Hyp = O=C(O)[C@@H]1C[C@@H](O)CN1; NMeChg = CN[C@H](C(=O)O)C1CCCCC1; NMeI = CC[C@H](C)[C@H](NC)C(=O)O; hPhe = N[C@@H](CCc1ccccc1)C(=O)O; NMeD = CN[C@@H](CC(=O)O)C(=O)O; CH2CONHtBu = CC(C)(C)NC(=O)C*; NMeL = CN[C@@H](CC(C)C)C(=O)O; NPrAla = CCCN[C@@H](C)C(=O)O; NMeV = CN[C@H](C(=O)O)C(C)C; d(β3hA) = C[C@@H](N)CC(=O)O; NMeS = CN[C@@H](CO)C(=O)O; Morpholide = C1CN(*)CCO1; NMeA = CN[C@@H](C)C(=O)O; NMeAib = CNC(C)(C)C(=O)O; Piperidide = C1CCN(*)CC1; Ac5c = NC1(C(=O)O)CCCC1; Aze = O=C(O)[C@@H]1CCN1; Aib = CC(C)(N)C(=O)O; Isopentyl = CC(C)CC*; Sar = CNCC(=O)O

Tested on: Human pancreatic cancer cell line AsPC-1 (G12D mutation Kras)
Assay: AsPC-1 cell growth inhibition (AsPC-1 CGI)
Format: cell-based
Settings: read-out: AsPC-1 cell growth inhibition, 50% growth inhibitory concentration (IC50 value); 96 hours, CellTiter-Glo, values classified in ranges
Protocol: Test compounds were serially dilated with dimethyl sulfoxide, and 200 nL was then dispensed to a U-bottom 96-well plate using Labcyte Echo. […] The cell suspension was dispensed to a. plate containing a test compound at 100 μL per well and incubated at 37° C. in a 5% carbon dioxide gas incubator. 96 hours later, 80 μL of CellTiter-Glo (Promega) was added to each well and fluorescence was measured.

`CC[C@H](C)[C@@H]1NC(=O)[C@H](CC(C)C)N(C)C(=O)C[C@@H](C(=O)N2CCCCC2)N(C)C(=O)[C@H](CC(C)C)NC(=O)C(C)(C)N(C)C(=O)[C@H](Cc2ccccc2Cl)NC(=O)[C@H](Cc2cccc(I)c2)NC(=O)CN(C)C(=O)[C@H](Cc2ccc(C)cc2)N(C)C(=O)[C@@H]2CCN2C(=O)CN(C)C1=O` [Compound 781] ([NMeL]I[Sar][Aze][NMePhe(4-Me)][Sar][Phe(3-I)][Phe(2-Cl)][NMeAib]L[NMeD]-Piperidide; lactam N-11) and `CC[C@H](C)[C@@H]1NC(=O)[C@H](CC(C)C)N(C)C(=O)C[C@@H](C(=O)N2CCCCC2)N(C)C(=O)[C@H](CC(C)C)NC(=O)C(C)(C)N(C)C(=O)[C@H](Cc2ccc(OC)cc2)NC(=O)[C@H](Cc2cccc(I)c2)NC(=O)CN(C)C(=O)[C@H](Cc2ccc(C)cc2)N(C)C(=O)[C@@H]2CCN2C(=O)CN(C)C1=O` [Compound 188] ([NMeL]I[Sar][Aze][NMePhe(4-Me)][Sar][Phe(3-I)]Y(Me)[NMeAib]L[NMeD]-Piperidide; lactam N-11) cannot be ordered by IC50: over 500 nM for the first, over 500 nM for the second.

`CC[C@H](C)[C@@H]1NC(=O)[C@H](CC(C)C)N(C)C(=O)C[C@@H](C)NC(=O)[C@H](C(C)C)N(C)C(=O)C2(CCCC2)NC(=O)[C@@H]2CCCN2C(=O)[C@H](CCc2ccc(C(F)(F)F)c(Cl)c2)NC(=O)CN(C)C(=O)[C@H](CC2CCCCC2)N(C)C(=O)CN(C)C(=O)CN(CCN2CCC(F)(F)CC2)C1=O` [Compound 635] (cyclo([Ac5c][NMeV][d(β3hA)][NMeL]I[X77][Sar][NMeCha][Sar][hPhe(3-Cl-4-CF3)]P)) and `CCCN1C(=O)C[C@@H](C)NC(=O)[C@H](C(C)C)N(C)C(=O)C2(CCCC2)NC(=O)[C@@H]2CCCN2C(=O)[C@H](CCc2ccc(C(F)(F)F)c(Cl)c2)NC(=O)CN(C)C(=O)[C@H](CC2CCCCC2)N(C)C(=O)CN(C)C(=O)CN(C)C(=O)[C@H]([C@@H](C)CC)NC(=O)[C@@H]1C` [Compound 114] (cyclo([Ac5c][NMeV][d(β3hA)][NPrAla]I[Sar][Sar][NMeCha][Sar][hPhe(3-Cl-4-CF3)]P)) cannot be ordered by IC50: over 500 nM for the first, over 500 nM for the second.

`CC[C@H](C)[C@@H]1NC(=O)[C@H](CC(C)C)N(C)C(=O)C[C@@H](C(=O)N2CCCCC2)N(C)C(=O)[C@H](C(C)C)N(C)C(=O)C2(CCCC2)NC(=O)[C@@H]2CCCN2C(=O)[C@H](CCc2ccccc2)NC(=O)CN(C)C(=O)[C@H](CC2CCCCC2)N(C)C(=O)CN(C)C(=O)CN(C)C1=O` [Compound 265] ([NMeL]I[Sar][Sar][NMeCha][Sar][hPhe]P[Ac5c][NMeV][NMeD]-Piperidide; lactam N-11) and `CC(C)CCOC[C@@H]1NC(=O)[C@H](CC(C)C)N(C)C(=O)C[C@@H](C(=O)N2CCCCC2)N(C)C(=O)[C@H](C2CCCCC2)N(C)C(=O)C2(CCCC2)NC(=O)[C@@H]2CCCN2C(=O)[C@H](CCc2ccc(C(F)(F)F)c(Cl)c2)NC(=O)CN(C)C(=O)[C@H](CC2CCCCC2)N(C)C(=O)CN(C)C(=O)CN(C)C1=O` [Compound 794] ([NMeL]S(Isopentyl)[Sar][Sar][NMeCha][Sar][hPhe(3-Cl-4-CF3)]P[Ac5c][NMeChg][NMeD]-Piperidide; lactam N-11) cannot be ordered by IC50: over 500 nM for the first, over 500 nM for the second.

`CC[C@H](C)[C@@H]1NC(=O)[C@H](CC(C)C)N(C)C(=O)C[C@@H](C)NC(=O)[C@H](CC(C)C)N(C)C(=O)C(C)(C)NC(=O)[C@H](COCC(=O)NC(C)(C)C)N(C)C(=O)[C@H](CCc2ccc(C(F)(F)F)c(Cl)c2)NC(=O)CN(C)C(=O)[C@H](COCCC(C)C)N(C)C(=O)CN(C)C(=O)CN(C)C1=O` [Compound 1467] (cyclo([Aib][NMeL][d(β3hA)][NMeL]I[Sar][Sar][NMeS](Isopentyl)[Sar][hPhe(3-Cl-4-CF3)][NMeS](CH2CONHtBu))) and `CC[C@H](C)[C@@H]1NC(=O)[C@H](CC(C)C)N(C)C(=O)C[C@@H](C)NC(=O)[C@H](CC(C)C)N(C)C(=O)C2(CCCC2)NC(=O)[C@@H]2CCN2C(=O)[C@H](CCc2ccc(C(F)(F)F)c(F)c2)NC(=O)CN(C)C(=O)[C@H](CC2CCCCC2)N(C)C(=O)CN(C)C(=O)CN(C)C1=O` [Compound 1545] (cyclo([Ac5c][NMeL][d(β3hA)][NMeL]I[Sar][Sar][NMeCha][Sar][hPhe(3-F,4-CF3)][Aze])) cannot be ordered by IC50: over 500 nM for the first, over 500 nM for the second.

`CC[C@H](C)[C@@H]1NC(=O)[C@H](CC(C)C)N(C)C(=O)C[C@@H](C(=O)N2C3CCC2COC3)N(C)C(=O)[C@H](C2CCCC2)N(C)C(=O)C2(CCCC2)NC(=O)[C@@H]2CCCN2C(=O)[C@H](CCc2cc(F)c(C(F)(F)F)c(F)c2)NC(=O)CN(C)C(=O)[C@H](Cc2ccc(C)cc2)N(CC)C(=O)[C@@H]2CCN2C(=O)[C@H](C)N(C)C1=O` [Compound 1215] ([NMeL]I[NMeA][Aze][NEtPhe(4-Me)][Sar][hPhe(3,5-F2-4-CF3)]P[Ac5c][NMeGly(cPent)][NMeD]-{3Oxa8azabicyclo(3.2.1)octane}; lactam N-11) and `CCO[C@@H]1C[C@H]2C(=O)NC3(CCCC3)C(=O)N(C)[C@@H]([C@@H](C)CC)C(=O)N(C)[C@H](C(=O)N3CCOCC3)CC(=O)N(C)[C@@H](CC(C)C)C(=O)N[C@@H]([C@@H](C)CC)C(=O)N(C)[C@@H](C)C(=O)N3CC[C@H]3C(=O)N(C)[C@@H](Cc3ccc(C(F)(F)F)cc3)C(=O)N(C)CC(=O)N[C@@H](CCc3cc(F)c(C(F)(F)F)c(F)c3)C(=O)N2C1` [Compound 1261] ([NMeL]I[NMeA][Aze][NMePhe(4-CF3)][Sar][hPhe(3,5-F2-4-CF3)][Hyp](Et)[Ac5c][NMeI][NMeD]-Morpholide; lactam N-11) cannot be ordered by IC50: at most 20 nM for the first, at most 20 nM for the second.

`C=C(C)C[C@@H]1NC(=O)[C@H](Cc2cccc(I)c2)NC(=O)CN(C)C(=O)[C@H](Cc2ccc(Cl)cc2)N(C)C(=O)[C@@H]2CCN2C(=O)[C@H](C)N(C)C(=O)[C@H]([C@@H](C)CC)NC(=O)[C@H](CC(C)C)N(C)C(=O)C[C@@H](C(=O)N2CCCCC2)N(C)C(=O)[C@H](CC(C)C)NC(=O)C(C)(C)N(C)C1=O` [Compound 1429] ([NMeL]I[NMeA][Aze][NMePhe(4-Cl)][Sar][Phe(3-I)][Leu(4,5-dehydro)][NMeAib]L[NMeD]-Piperidide; lactam N-11) and `CC[C@H](C)[C@@H]1NC(=O)[C@H](CC(C)C)N(C)C(=O)C[C@@H](C(=O)N(C)C)N(C)C(=O)[C@H]([C@@H](C)CC)N(C)C(=O)[C@H](C)NC(=O)[C@@H](C)NC(=O)[C@H](CCc2ccc(C(F)(F)F)c(Cl)c2)NC(=O)CN(C)C(=O)[C@H](Cc2ccc(C)cc2)N(C)C(=O)[C@@H]2CCN2C(=O)[C@H](C)N(C)C1=O` [Compound 382] ([NMeL]I[NMeA][Aze][NMePhe(4-Me)][Sar][hPhe(3-Cl-4-CF3)][dA]A[NMeI][NMeD]-NMe2; lactam N-11) cannot be ordered by IC50: over 500 nM for the first, over 500 nM for the second.

Going from `CC[C@H](C)[C@@H]1NC(=O)[C@H](C2CC2)N(C)C(=O)C[C@@H](C)NC(=O)[C@H](C(C)C)N(C)C(=O)C2(CCCC2)NC(=O)[C@@H]2CCCN2C(=O)[C@H](CCc2ccc(C(F)(F)F)c(Cl)c2)NC(=O)CN(C)C(=O)[C@H](CC2CCCCC2)N(C)C(=O)[C@@H]2CCN2C(=O)[C@H](C)N(C)C1=O` [Compound 565] (cyclo([Ac5c][NMeV][d(β3hA)][NMeGly(cPr)]I[NMeA][Aze][NMeCha][Sar][hPhe(3-Cl-4-CF3)]P)) to `CC[C@H](C)[C@@H]1NC(=O)[C@H](CC(C)C)N(C)C(=O)C[C@@H](C(=O)N(C)C)N(C)C(=O)[C@H](C2CCCC2)N(C)C(=O)C2(CCCC2)NC(=O)[C@@H]2CCCN2C(=O)[C@H](CCc2ccc(C(F)(F)F)c(Cl)c2)NC(=O)CN(C)C(=O)[C@H](Cc2ccc(C)cc2)N(C)C(=O)CN(C)C(=O)CN(C)C1=O` [Compound 1779] ([NMeL]I[Sar][Sar][NMePhe(4-Me)][Sar][hPhe(3-Cl-4-CF3)]P[Ac5c][NMeGly(cPent)][NMeD]-NMe2; lactam N-11), the IC50 falls from over 500 nM to at most 20 nM.
